Reference: patent US20050131041A1, “Azole derivatives as antifungal agents” (priority 2002, published 2005)
In brackets after ≈: the same amount, converted by molar mass. Like-named read-outs stand apart in the source and are kept apart here.

Key:
Candida krusei 6258 (QC) = experiment: MIC determination (NCCLS M27A/M38P broth dilution); format: cell-based
Candida glabrata 90030 = experiment: MIC determination (NCCLS M27A/M38P broth dilution); format: cell-based
Candida krusei 766.1 = experiment: MIC determination (NCCLS M27A/M38P broth dilution); format: cell-based
[1] = system: Aspergillus fumigatus Si-I; experiment: MIC determination (NCCLS M27A/M38P broth dilution); format: cell-based
Candida albicans Y-01-19 = experiment: MIC determination (NCCLS M27A/M38P broth dilution); format: cell-based
[2] = system: Paecilomyces variotti 22319(QC); experiment: MIC determination (NCCLS M27A/M38P broth dilution); format: cell-based
Candida tropicalis 750 = experiment: MIC determination (NCCLS M27A/M38P broth dilution); format: cell-based
Candida albicans 1122 = experiment: MIC determination (NCCLS M27A/M38P broth dilution); format: cell-based
[3] = system: Aspergillus fumigatus 1008; experiment: MIC determination (NCCLS M27A/M38P broth dilution); format: cell-based
[4] = system: Candida parapsilosis 22019 (QC); experiment: MIC determination (NCCLS M27A/M38P broth dilution); format: cell-based
[5] = system: Cryptococcus neoformans M 106; experiment: MIC determination (NCCLS M27A/M38P broth dilution); format: cell-based
Cryptococcus neoformans = conditions: cited from earlier work
ergosterol P450DM [6] = conditions: cited from earlier work
ergosterol P450DM [7] = biological target: ergosterol P450DM (Candida albicans, UniProt P10613); conditions: cited from earlier work
Chain of ergosterol P450DM (Candida albicans, UniProt P10613) (P10613 whole entry): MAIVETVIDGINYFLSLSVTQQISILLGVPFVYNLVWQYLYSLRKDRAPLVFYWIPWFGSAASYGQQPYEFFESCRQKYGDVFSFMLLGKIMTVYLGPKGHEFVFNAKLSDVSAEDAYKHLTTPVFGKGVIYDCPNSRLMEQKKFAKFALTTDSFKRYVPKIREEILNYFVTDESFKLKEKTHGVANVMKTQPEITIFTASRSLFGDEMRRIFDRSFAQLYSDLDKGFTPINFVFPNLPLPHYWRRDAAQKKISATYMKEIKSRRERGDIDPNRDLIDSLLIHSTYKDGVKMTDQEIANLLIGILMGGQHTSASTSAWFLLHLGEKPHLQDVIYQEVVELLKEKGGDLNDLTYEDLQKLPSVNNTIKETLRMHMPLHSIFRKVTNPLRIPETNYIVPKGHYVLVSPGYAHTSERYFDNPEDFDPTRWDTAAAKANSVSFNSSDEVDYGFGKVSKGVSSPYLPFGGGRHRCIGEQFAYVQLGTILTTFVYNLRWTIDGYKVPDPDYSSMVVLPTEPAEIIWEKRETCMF

[8] = Candida krusei 6258 (QC), RPMI 1640, MOPS pH 7
[9] = Aspergillus fumigatus Si-I, RPMI 1640, MOPS pH 7
[10] = Paecilomyces variotti 22319(QC), RPMI 1640, MOPS pH 7
[11] = Aspergillus fumigatus 1008, RPMI 1640, MOPS pH 7
[12] = Nakaseomyces glabratus, RPMI 1640, MOPS pH 7, read-out: MIC
[13] = Pichia kudriavzevii, RPMI 1640, MOPS pH 7, read-out: MIC
[14] = Y0119, RPMI 1640, MOPS pH 7, read-out: MIC
[15] = RPMI 1640, MOPS pH 7, read-out: MIC
[16] = Aspergillus fumigatus 1008, RPMI 1640, MOPS pH 7, read-out: MIC
[17] = M106, RPMI 1640, MOPS pH 7, read-out: MIC
[18] = Pichia kudriavzevii, Candida krusei 6258 (QC), RPMI 1640, MOPS pH 7, read-out: MIC
[19] = Paecilomyces variotti 22319(QC), RPMI 1640, MOPS pH 7, read-out: MIC

| Structure (SMILES) | MIC (Candida krusei 6258 (QC); [8]) [µg/mL] | MIC (Candida glabrata 90030; RPMI 1640, MOPS pH 7) [µg/mL] | MIC (Candida krusei 766.1; RPMI 1640, MOPS pH 7) [µg/mL] | MIC [1, 9] [µg/mL] | MIC (Candida albicans Y-01-19; RPMI 1640, MOPS pH 7) [µg/mL] | MIC [2, 10] | MIC (Candida tropicalis 750; RPMI 1640, MOPS pH 7) [µg/mL] | MIC (Candida albicans 1122; RPMI 1640, MOPS pH 7) [µg/mL] | MIC [3, 11] [µg/mL] | MIC ([4]; RPMI 1640, MOPS pH 7) [µg/mL] | MIC ([5]; RPMI 1640, MOPS pH 7) [µg/mL] | MIC (Candida glabrata 90030; [12]) [µg/mL] | MIC (Candida krusei 766.1; [13]) [µg/mL] | MIC (Candida albicans Y-01-19; [14]) [µg/mL] | MIC (Candida tropicalis 750; [15]) [µg/mL] | MIC (Candida albicans 1122; [15]) [µg/mL] | MIC [4, 15] [µg/mL] | MIC [5, 17] [µg/mL] | also measured |
| --- | --- | --- | --- | --- | --- | --- | --- | --- | --- | --- | --- | --- | --- | --- | --- | --- | --- | --- | --- |
| CCC(C)n1ncn(-c2ccc(N3CCN(c4ccc(OCC5COC(Cn6cncn6)(c6ccc(Cl)cc6Cl)O5)cc4)CC3)cc2)c1=O (centres unmarked) [ITRA, ITRACONAZOLE] |  |  |  |  |  |  |  |  |  |  |  | 0.5 (≈ 0.709 µM) | 0.25 (≈ 0.354 µM) | 0.25 (≈ 0.354 µM) | 0.004 (≈ 0.00567 µM) | 0.016 (≈ 0.0227 µM) | 0.03 (≈ 0.0425 µM) | 0.03 (≈ 0.0425 µM) | MIC (Candida krusei 6258 (QC); Pichia kudriavzevii, pH 7): 0.125 µg/mL (≈ 0.177 µM); MIC ([1]; Aspergillus fumigatus, pH 7): 0.125 µg/mL (≈ 0.177 µM); MIC ([2]; Paecilomyces, pH 7): 0.125 µg/mL (≈ 0.177 µM); MIC [3, 16]: 0.25 µg/mL (≈ 0.354 µM) |
| OC(Cn1cncn1)(Cn1cncn1)c1ccc(F)cc1F [FLU, FLUCONAZOLE] |  |  |  |  |  |  |  |  |  |  |  | 16 (≈ 52.2 µM) | 64 (≈ 209 µM) | 16 (≈ 52.2 µM) | 2 (≈ 6.53 µM) | 0.5 (≈ 1.63 µM) | 2 (≈ 6.53 µM) | 4 (≈ 13.1 µM) | MIC (Candida krusei 6258 (QC); [18]): 32 µg/mL (≈ 104 µM); MIC ([1]; Aspergillus fumigatus, pH 7): > 128 µg/mL; MIC [2, 19]: 2 µg/mL (≈ 6.53 µM); MIC ([3]; Aspergillus fumigatus, 1008, pH 7): > 128 µg/mL |
| CC[C@H](C)C[C@H](C)CCCCCCCCC(=O)N[C@H]1C[C@@H](O)[C@@H](NCCN)NC(=O)[C@@H]2[C@@H](O)CCN2C(=O)[C@H]([C@H](O)CCN)NC(=O)[C@H]([C@H](O)[C@@H](O)c2ccc(O)cc2)NC(=O)[C@@H]2C[C@@H](O)CN2C(=O)[C@H]([C@@H](C)O)NC1=O [caspofungin, Caspofungin] |  |  |  |  |  |  |  |  |  |  |  |  |  |  |  |  |  |  | activity against Cryptococcus neoformans (Cryptococcus neoformans): not active |
| C[C@@H]1[C@H](O)[C@@H](C)/C=C/C=C/C=C/C=C/C=C/C=C/C=C/[C@H](O[C@@H]2O[C@H](C)[C@@H](O)[C@H](N)[C@@H]2O)C[C@@H]2O[C@](O)(C[C@@H](O)C[C@@H](O)[C@H](O)CC[C@@H](O)C[C@@H](O)CC(=O)O[C@H]1C)C[C@H](O)[C@H]2C(=O)O [AMB, AMPHOTERICIN B] | 0.25 (≈ 0.271 µM) | 0.5 (≈ 0.541 µM) | 0.25 (≈ 0.271 µM) | 0.5 (≈ 0.541 µM) | 0.25 (≈ 0.271 µM) | 0.25 µg/mL (≈ 0.271 µM) | 0.125 (≈ 0.135 µM) | 0.25 (≈ 0.271 µM) | 0.25 (≈ 0.271 µM) | 0.125 (≈ 0.135 µM) | 0.06 (≈ 0.0649 µM) |  |  |  |  |  |  |  |  |
| C[C@@H](c1ncncc1F)[C@](O)(Cn1cncn1)c1ccc(F)cc1F [VORI, VORICONAZOLE] |  |  |  |  |  |  |  |  |  |  |  | 1 (≈ 2.86 µM) | 1 (≈ 2.86 µM) | 0.5 (≈ 1.43 µM) | 0.016 (≈ 0.0458 µM) | 0.16 (≈ 0.458 µM) | 0.03 (≈ 0.0859 µM) | 0.06 (≈ 0.172 µM) | greater inhibition of ergosterol P450DM compared to fluconazole (ergosterol P450DM [6]): 160 fold; MIC (Candida krusei 6258 (QC); [18]): 0.25 µg/mL (≈ 0.716 µM); MIC ([1]; Aspergillus fumigatus Si-I, RPMI 1640, MOPS pH 7, read-out: MIC): 0.25 µg/mL (≈ 0.716 µM); greater inhibition of ergosterol P450DM compared to fluconazole (ergosterol P450DM [7]): 1.6 fold; MIC [2, 19]: 0.06 µg/mL (≈ 0.172 µM); MIC [3, 16]: 0.25 µg/mL (≈ 0.716 µM) |

More lines, main results first:

| MIC (Candida krusei 6258 (QC); [8]) [µg/mL] | MIC (Candida glabrata 90030; RPMI 1640, MOPS pH 7) [µg/mL] | MIC (Candida krusei 766.1; RPMI 1640, MOPS pH 7) [µg/mL] | MIC [1, 9] [µg/mL] | MIC (Candida albicans Y-01-19; RPMI 1640, MOPS pH 7) [µg/mL] | MIC [2, 10] | MIC (Candida tropicalis 750; RPMI 1640, MOPS pH 7) [µg/mL] | MIC (Candida albicans 1122; RPMI 1640, MOPS pH 7) [µg/mL] | MIC [3, 11] [µg/mL] | MIC ([4]; RPMI 1640, MOPS pH 7) [µg/mL] | MIC ([5]; RPMI 1640, MOPS pH 7) [µg/mL] | Structure (SMILES) | MIC (Candida glabrata 90030; [12]) [µg/mL] | MIC (Candida krusei 766.1; [13]) [µg/mL] | MIC (Candida albicans Y-01-19; [14]) [µg/mL] | MIC (Candida tropicalis 750; [15]) [µg/mL] | MIC (Candida albicans 1122; [15]) [µg/mL] | MIC [4, 15] [µg/mL] | MIC [5, 17] [µg/mL] | also measured |
| --- | --- | --- | --- | --- | --- | --- | --- | --- | --- | --- | --- | --- | --- | --- | --- | --- | --- | --- | --- |
| 0.25 (≈ 0.505 µM) | 0.06 (≈ 0.121 µM) | 0.25 (≈ 0.505 µM) | 0.25 (≈ 0.505 µM) | 0.25 (≈ 0.505 µM) | 0.016 µg/mL (≈ 0.0323 µM) | 0.004 (≈ 0.00807 µM) | 0.06 (≈ 0.121 µM) | 0.25 (≈ 0.505 µM) | <0.00025 | 0.03 (≈ 0.0605 µM) | C[C@@H](n1ccn(-c2ccc(-n3cnnn3)cc2)c1=S)[C@](O)(Cn1cncn1)c1ccc(F)cc1F [compound 4, 1-[(1R,2R)-2-(2,4-Difluorophenyl)-2-hydroxy-1-methyl-3-(1H-1,2,4-triazol-1-yl)propyl]-3-[4-(1H-1-tetrazolyl)phenyl]-2-(1H,3H)-thioimidazolone] |  |  |  |  |  |  |  |  |
| 0.06 (≈ 0.121 µM) | 1 (≈ 2.02 µM) | 0.5 (≈ 1.01 µM) | 0.016 (≈ 0.0323 µM) | 0.5 (≈ 1.01 µM) | Long trailing effect | <0.00025 | <0.00025 | 0.125 (≈ 0.252 µM) | <0.00025 | <0.00025 | C[C@@H](n1ccn(-c2ccc(-n3ncnn3)cc2)c1=S)[C@](O)(Cn1cncn1)c1ccc(F)cc1F [compound 5, 1-[(1R,2R)-2-(2,4-Difluorophenyl)-2-hydroxy-1-methyl-3-(1H-1,2,4-triazol-1-yl)propyl]-3-[4-(2H-2-tetrazolyl)phenyl]-2-(1H,3H)-thioimidazolone] |  |  |  |  |  |  |  |  |
| 0.125 (≈ 0.224 µM) | 2 (≈ 3.59 µM) | 0.5 (≈ 0.897 µM) | 0.016 (≈ 0.0287 µM) | 0.5 (≈ 0.897 µM) | Long trailing effect | <0.00025 | <0.00025 | 0.125 (≈ 0.224 µM) | <0.00025 | <0.00025 | C[C@@H](n1ccn(-c2ccc(OCC(F)(F)C(F)F)cc2)c1=S)[C@](O)(Cn1cncn1)c1ccc(F)cc1F [compound 6, 1-[(1R,2R)-2-(2,4-Difluorophenyl)-2-hydroxy-1-methyl-3-(1H-1,2,4-triazol-1-yl)propyl]-3-[4-(2,2,3,3-tetrafluoropropoxy)phenyl]-2-(1H,3H)-thioimidazolone] |  |  |  |  |  |  |  |  |
